Assay results: article PMC7529580, “Modified heptapeptide from tau binds both tubulin and microtubules” (Thoracic Cancer, 2020)
Entries after “also recorded” stand apart in the source; their conditions may differ. Like-named read-outs stand apart in the source and are kept apart here. Blank lines part the entries; values can stand above or below the molecule they belong to. Non-standard residues stand in square brackets, D forms with d. No end group written: not given here. *: point of attachment. FITC = O=C1OC2(c3ccc(O)cc3Oc3cc(O)ccc32)c2ccc(NC(=S)*)cc21; Ahx = NCCCCCC(=O)O

Assays:
[1] = target: fluorescent tau-derived peptide (FITC-Ahx-(rR)3R2-GGG-KKVAVVR); test: MST; 1 μM of the fluorescent peptide constant, a series dilution of tubulin dimers; Monolith NT.115, hydrophobic capillaries
[2] = test system: microtubules in living cells; settings: cited from earlier work; for labeling of microtubules in living cells (in words): microtubule‐targeting agents
Description: The property of microtubules is regulated by a number of microtubule‐binding proteins, ^8 , ^9 , ^10 , ^11 , ^12 , ^13 of which tau is well‐characterized because of its abundance, particularly in brain tissues. ^14 , ^15 , ^16 The N‐terminus of tau is a projection domain, followed by a proline‐rich region and a C‐terminal microtubule‐assembly domain. ^17 The microtubule‐assembly domain, which contains four imperfect sequence repeats, is responsible for the binding of tau to microtubules. […] In this study, we tested another tau‐derived peptide for its ability to monitor microtubules.

[3] = test system: microtubules; parameters: method as in 2 sources, ref 26 = [26]; PMID 9190213; doi:10.1091/mbc.8.2.353; 26 Goode BL , Denis PE , Panda D et al Functional interactions between the proline‐rich and repeat regions of tau enhance microtubule binding and assembly . Mol Biol Cell 1997; 8 : 353 – 65 . 9190213 ||| ref 27 = [27]; PMID 19186939; doi:10.1021/bm801224q; 27 Cao B , Mao C . Identification of microtubule‐binding domains on microtubule‐associated proteins by major coat phage display technique . Biomacromolecules 2009; 10 : 555 – 64 . 19186939 10.1021/bm; settings: cited from earlier work
[4] = test system: polymerized microtubules; test: Labeling of polymerized microtubules in solution (fluorescence microscopy); type: binding; settings: 1 μM peptide added to polymerized rhodamine‐labeled microtubules, five minutes incubation, fluorescence microscope
Method: (§1) Tubulin from HeLa cells was purified using a TOG‐based affinity column. ^20 Briefly, cells were resuspended in an equal volume of BRB80 buffer containing 3 μL of benzonase and 1 mM DTT. Cells were lysed on ice and centrifuged at 40 000 rpm for 30 minutes at 4°C. The supernatant was filtered through a 0.45 μm Milliex‐HV polyvinylidene fluoride membrane, and then loaded into a TOG column preequilibrated with BRB80 buffer. The tubulin was eluted with BRB80 buffer, and the crude extract was further purified through the cycle of polymerization and depolymerization as previously described. ^22
Rhodamine‐labeled tubulin (5%) was mixed into tubulin purified from HeLa cells in the PEMG buffer (100 mM PIPES, 1 mM EGTA, 1 mM MgSO4, 1 mM GTP, pH 6.8). Next, the mixture was placed on ice for five minutes and then incubated at 37°C for 30 minutes. The polymerized reaction was terminated by adding 400 μL of PEMG buffer. […] The pellet was resuspended with 300 μL of the PEMG buffer supplemented with 20 μM paclitaxel and then added into a slide chamber for imaging under a fluorescence microscope.
Figure 3 The peptide was able to label the microtubules in solution. (a) The tubulin was purified from HeLa cells through cycle process, and the purity was determined by SDS‐PAGE. […] After five minutes incubation, the microtubule was imaged under a fluorescence microscope. […]

[5] = test system: tubulin dimers; test: Microscale thermophoresis affinity determination; type: binding; settings: 1 μM peptide, series dilution of tubulin
Method: All microscale thermophoresis measurements were performed using Monolith NTTM hydrophobic capillaries and a Monolith NT.115 instrument (NanoTemper) according to the manufacturer's instructions. The peptide was prepared with varying concentrations for pretest to ensure final proper concentration. The fluorescence intensity value should be more than 200. A series of dilution of the tubulin dimers was then added into the capillaries. The affinity of the peptide to tubulin dimers was examined using the Monolith NT.115 instrument.
as §1
Figure 2 Affinity determination of the peptide to tubulin. 1 μM of the peptide and a series dilution of tubulin were added into the capillary tube, and the fluorescence intensity was then determined by a Monolith NT.115 instrument.

[6] = test system: HeLa cells; test: Living cell assay: entry of peptide into cells; type: cell-based; settings: 15 μM peptide, 30 minutes, Hoechst 33258, fluorescence microscope
Method: (§2) HeLa cells were cultured in Dulbecco's modified Eagle's medium supplemented with 10% fetal bovine serum and maintained at 37°C in a humidified 5% CO2 environment. The peptide was added into the Hela cells, and incubated for 30 minutes. The nuclei were stained with Hoechst 33258 (Beyotime). Cells were imaged with a fluorescence microscope (Leica, Germany).  Figure 4 Examination of the peptide in tracing microtubules in living cells. HeLa cells were treated with 15 μM of the peptide or control peptide, together with Hoechst 33258, and 30 minutes later, the cells were imaged with a fluorescence microscope. Scale bar: 5 μm.

[7] = test system: microtubules in HeLa cells; test: Living cell assay: tracing of microtubules; type: cell-based; settings: 15 μM peptide, 30 minutes, Hoechst 33258, fluorescence microscope
Method: as §2

Kd [1]: 4.68 µM
Molecule: tubulin dimers purified from HeLa cells (from UniProt P68363 1-451; P07437 1-444) (complex)

Molecule: COc1cc2c(c(OC)c1OC)-c1ccc(OC)c(=O)cc1[C@@H](NC(C)=O)CC2 [colchicine]
labeling of microtubules in living cells (in words) [2]: able to label microtubules in living cells

Molecule: N=C(N)c1ccc(-c2cc3ccc(C(=N)N)cc3[nH]2)cc1 [4',6‐diamidino‐2‐phenylindole (DAPI), 4',6‐diamidino‐2‐phenylindole]
tracing microtubules in living cells (in words) ([2]; due to the lack of specificity and the complexity of cellular contents): unable to trace microtubules in living cells

Molecule: KKVAVVRTPP
microtubule binding (in words) ([3]; peptide with VxxVxxP motif): able to bind microtubules

Molecule: CC(=O)O[C@H]1C(=O)[C@@]2(C)[C@H]([C@H](OC(=O)c3ccccc3)[C@]3(O)C[C@H](OC(=O)[C@H](O)[C@@H](NC(=O)c4ccccc4)c4ccccc4)C(C)=C1C3(C)C)[C@]1(OC(C)=O)CO[C@@H]1C[C@@H]2O [taxol]
labeling of microtubules in living cells (in words) [2]: able to label microtubules in living cells

binding to tubulin dimers (in words) [5]: specifically bound to tubulin
disassociation constant (Kd) of the peptide with tubulin ([5]; Monolith NT.115, hydrophobic capillaries): 4.68 ± 0.08 µM
Molecule: tau‐derived peptide: FITC dye, cell‐penetrating peptide (rR)3R2, spacer (GGG), microtubule recognition unit (KKVAVVR), with aminohexanoic (Ahx) acid ({FITC-Ahx}-[dR]R[dR]R[dR]RRRGGGKKVAVVR)
labeling of microtubules in solution / binding to microtubules (in words) ([4]; listed as modified heptapeptide from tau): binds microtubules specifically and noncovalently
labeling of microtubules in solution / binding to microtubules (in words) ([4]; listed as the peptide): able to successfully label the microtubules in solution
binding to tubulin dimers (in words) ([5]; listed as the peptide): bound tubulin dimers in a dose‐dependent manner; also recorded: relatively low affinity
entry into living cells (in words) [6]: delivered successfully into HeLa cells
tracing of microtubule filaments in living cells (in words) [7]: no clear microtubule filaments were observed

Molecule: KKVAVVR
microtubule binding (in words) ([3]; small sequence within the proline‐rich region of tau): critical for efficient microtubule binding
